In PubChem BioAssay AID1963421 (Molecular Pharmacology Branch, DTP, NCI, 2024):

Test system: 519858-162-T-J1-PDC complex spheroid growth, % test/control
Assay: Anticancer human tumor 519858-162-T-J1-PDC patient-derived colon adenocarcinoma cell line growth inhibition [Asc]
Conditions: for IC50: curve of first compound; for viability, T/C: stronger effect = lower value
Outline: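 Complex solid-tumor spheroids incorporating human endothelial and mesenchymal stem cells received single agents or combinations over half-log dilution ranges anchored to clinical Cmax.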

[1] = second compound 0.0316 µM, first compound 0.00316 µM
[2] = second compound 0.0316 µM, first compound 0.01 µM
[3] = second compound 0.0316 µM, first compound 0.0316 µM
[4] = second compound 0.0316 µM, first compound 0.1 µM
[5] = second compound 0.0316 µM, first compound 0.316 µM
[6] = second compound 0.0316 µM, first compound 1 µM
[7] = second compound 0.1 µM, first compound 0.00316 µM
[8] = second compound 0.1 µM, first compound 0.01 µM
[9] = second compound 0.1 µM, first compound 0.0316 µM
[10] = second compound 0.1 µM, first compound 0.1 µM
[11] = second compound 0.1 µM, first compound 0.316 µM
[12] = second compound 0.1 µM, first compound 1 µM
[13] = second compound 0.316 µM, first compound 0.00316 µM
[14] = second compound 0.316 µM, first compound 0.01 µM
[15] = second compound 0.316 µM, first compound 0.0316 µM
[16] = second compound 0.316 µM, first compound 0.1 µM
[17] = second compound 0.316 µM, first compound 0.316 µM
[18] = second compound 0.316 µM, first compound 1 µM
[19] = second compound 1 µM, first compound 0.00316 µM
[20] = second compound 1 µM, first compound 0.01 µM
[21] = second compound 1 µM, first compound 0.0316 µM
[22] = second compound 1 µM, first compound 0.1 µM
[23] = second compound 1 µM, first compound 0.316 µM
[24] = second compound 1 µM, first compound 1 µM
[25] = second compound 3.16 µM, first compound 0.00316 µM
[26] = second compound 3.16 µM, first compound 0.01 µM
[27] = second compound 3.16 µM, first compound 0.0316 µM
[28] = second compound 3.16 µM, first compound 0.1 µM
[29] = second compound 3.16 µM, first compound 0.316 µM
[30] = second compound 3.16 µM, first compound 1 µM
[31] = second compound 10 µM, first compound 0.00316 µM
[32] = second compound 10 µM, first compound 0.01 µM
[33] = second compound 10 µM, first compound 0.0316 µM
[34] = second compound 10 µM, first compound 0.1 µM
[35] = second compound 10 µM, first compound 0.316 µM
[36] = second compound 10 µM, first compound 1 µM
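Further: seven day drug exposure begun three days after spheroid seeding.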
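Wherever viability, T/C is given: 100% = DMSO vehicle wells and lower values mean less viable spheroid.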

In the case of CCN1CCN(Cc2ccc(Nc3ncc(F)c(-c4cc(F)c5nc(C)n(C(C)C)c5c4)n3)nc2)CC1 + Cc1c(S(C)(=O)=O)c(-c2cc(F)cc(N3CCN(c4ccc(NS(=O)(=O)c5ccc(NC(CCN6CCC(C(=O)OCCCP(=O)(O)O)CC6)CSc6ccccc6)c(S(=O)(=O)C(F)(F)F)c5)cc4)CC3)c2)c(-c2ccc(Cl)cc2)n1C(C)C, the IC50 (second compound 0.0316 µM) is reported as greater than 1000 nM, the IC50 (second compound 0.1 µM) is reported as greater than 1000 nM and the IC50 (second compound 0.316 µM) is reported as greater than 1000 nM. The IC50 (second compound 1 µM) was greater than 1000 nM, the IC50 (second compound 3.16 µM) was greater than 1000 nM and the IC50 (second compound 10 µM) was greater than 1000 nM. It also gave a viability, T/C [1] of 124%, a viability, T/C [2] of 106% and a viability, T/C [3] of 62.9%. It also gave a viability, T/C [4] of 92%, a viability, T/C [5] of 84.8% and a viability, T/C [6] of 72.3%. The viability, T/C [7] was 109%, the viability, T/C [8] was 95.8% and the viability, T/C [9] was 89.2%. For the same compound, the viability, T/C [10] was 86.3%, the viability, T/C [11] was 79.5% and the viability, T/C [12] was 112%. The viability, T/C [13] was 119%, the viability, T/C [14] was 109% and the viability, T/C [15] was 98.3%. It also gave a viability, T/C [16] of 60.5%, a viability, T/C [17] of 95.6% and a viability, T/C [18] of 69.7%. The viability, T/C [19] was 87.4%, the viability, T/C [20] was 76% and the viability, T/C [21] was 62.6%. It also gave a viability, T/C [22] of 79%, a viability, T/C [23] of 75.2% and a viability, T/C [24] of 56.4%. It also gave a viability, T/C [25] of 90.5%, a viability, T/C [26] of 68.6% and a viability, T/C [27] of 101%. The viability, T/C [28] was 73.7%, the viability, T/C [29] was 67% and the viability, T/C [30] was 57.2%. For the same compound, the viability, T/C [31] was 77.7%, the viability, T/C [32] was 61.1% and the viability, T/C [33] was 62.6%. The viability, T/C [34] was 72.8%, the viability, T/C [35] was 63.3% and the viability, T/C [36] was 68%.
Cn1ncnc1[C@H]1c2n[nH]c(=O)c3cc(F)cc(c23)N[C@@H]1c1ccc(F)cc1 + Cc1c(S(C)(=O)=O)c(-c2cc(F)cc(N3CCN(c4ccc(NS(=O)(=O)c5ccc(NC(CCN6CCC(C(=O)OCCCP(=O)(O)O)CC6)CSc6ccccc6)c(S(=O)(=O)C(F)(F)F)c5)cc4)CC3)c2)c(-c2ccc(Cl)cc2)n1C(C)C showed an IC50 (second compound 0.0316 µM) greater than 100 nM, an IC50 (second compound 0.1 µM) greater than 100 nM and an IC50 (second compound 0.316 µM) greater than 100 nM. The IC50 (second compound 1 µM) was greater than 100 nM, the IC50 (second compound 3.16 µM) was greater than 100 nM and the IC50 (second compound 10 µM) was 100 nM. It also gave a viability, T/C (second compound 0.0316 µM, first compound 0.000316 µM) of 119%, a viability, T/C (second compound 0.0316 µM, first compound 0.001 µM) of 120% and a viability, T/C [1] of 73%. For the same compound, the viability, T/C [2] was 100%, the viability, T/C [3] was 69% and the viability, T/C [4] was 95.4%. For the same compound, the viability, T/C (second compound 0.1 µM, first compound 0.000316 µM) was 121%, the viability, T/C (second compound 0.1 µM, first compound 0.001 µM) was 78.9% and the viability, T/C [7] was 85.8%. For the same compound, the viability, T/C [8] was 123%, the viability, T/C [9] was 76.6% and the viability, T/C [10] was 54.9%. It also gave a viability, T/C (second compound 0.316 µM, first compound 0.000316 µM) of 115%, a viability, T/C (second compound 0.316 µM, first compound 0.001 µM) of 101% and a viability, T/C [13] of 61.3%. It also gave a viability, T/C [14] of 92.9%, a viability, T/C [15] of 83.7% and a viability, T/C [16] of 89.4%. For the same compound, the viability, T/C (second compound 1 µM, first compound 0.000316 µM) was 88.8%, the viability, T/C (second compound 1 µM, first compound 0.001 µM) was 76.5% and the viability, T/C [19] was 131%. It also gave a viability, T/C [20] of 60.8%, a viability, T/C [21] of 74.6% and a viability, T/C [22] of 90.5%. The viability, T/C (second compound 3.16 µM, first compound 0.000316 µM) was 104%, the viability, T/C (second compound 3.16 µM, first compound 0.001 µM) was 87.1% and the viability, T/C [25] was 83.7%. For the same compound, the viability, T/C [26] was 75.2%, the viability, T/C [27] was 113% and the viability, T/C [28] was 79.1%. The viability, T/C (second compound 10 µM, first compound 0.000316 µM) was 69.5%, the viability, T/C (second compound 10 µM, first compound 0.001 µM) was 95.7% and the viability, T/C [31] was 63.2%. For the same compound, the viability, T/C [32] was 49.6%, the viability, T/C [33] was 61.3% and the viability, T/C [34] was 61.4%.
Compound O=C(c1ccc(F)c(F)c1Nc1ccc(I)cc1F)N1CC(O)([C@@H]2CCCCN2)C1 + Cc1c(S(C)(=O)=O)c(-c2cc(F)cc(N3CCN(c4ccc(NS(=O)(=O)c5ccc(NC(CCN6CCC(C(=O)OCCCP(=O)(O)O)CC6)CSc6ccccc6)c(S(=O)(=O)C(F)(F)F)c5)cc4)CC3)c2)c(-c2ccc(Cl)cc2)n1C(C)C has an IC50 (second compound 0.0316 µM) of 283 nM, an IC50 (second compound 0.1 µM) of 212 nM and an IC50 (second compound 0.316 µM) of 164 nM. For the same compound, the IC50 (second compound 1 µM) was 232 nM, the IC50 (second compound 3.16 µM) was 235 nM and the IC50 (second compound 10 µM) was 122 nM. It also gave a viability, T/C [1] of 113%, a viability, T/C [2] of 84.2% and a viability, T/C [3] of 78.6%. The viability, T/C [4] was 115%, the viability, T/C [5] was 44.9% and the viability, T/C [6] was 14.5%. It also gave a viability, T/C [7] of 93.6%, a viability, T/C [8] of 91.4% and a viability, T/C [9] of 76.5%. The viability, T/C [10] was 50.8%, the viability, T/C [11] was 54.6% and the viability, T/C [12] was 18.9%. It also gave a viability, T/C [13] of 81.8%, a viability, T/C [14] of 92.2% and a viability, T/C [15] of 110%. It also gave a viability, T/C [16] of 63.8%, a viability, T/C [17] of 39.2% and a viability, T/C [18] of 24.1%. The viability, T/C [19] was 108%, the viability, T/C [20] was 92.1% and the viability, T/C [21] was 72.5%. The viability, T/C [22] was 54.7%, the viability, T/C [23] was 66% and the viability, T/C [24] was 19.5%. It also gave a viability, T/C [25] of 61.8%, a viability, T/C [26] of 82.7% and a viability, T/C [27] of 60.3%. For the same compound, the viability, T/C [28] was 72%, the viability, T/C [29] was 43.3% and the viability, T/C [30] was 12.9%. For the same compound, the viability, T/C [31] was 75.6%, the viability, T/C [32] was 59.8% and the viability, T/C [33] was 47.1%. For the same compound, the viability, T/C [34] was 60.5%, the viability, T/C [35] was 39.3% and the viability, T/C [36] was 9.69%.
